Read-outs that look alike come from different tables or passages of the source.
How the values were obtained:
[1] = molecular target: Recombinant human JAK2 kinase domain protein (Residues 812-1132) (Homo sapiens, UniProt O60674); experiment: JAK2 biochemical assay (microfluidic mobility shift, peptide phosphorylation); conditions: Enzyme JAK2 Ki (nM), 25 μM ATP, 0.2 nM total JAK2
[2] = tested on: JAK1: IL-13-stimulated STAT6 phosphorylation in BEAS-2B cells; experiment: P-STAT6 BEAS-2B+IL-13 Cell Assay; assay type: cell-based, human; conditions: IL-13 stimulation, read-out: Cellular JAK1 PSTAT6 BEAS2B + IL13 IC50
Method: P-STAT6 BEAS-2B+IL-13 Cell Assay
In order to study the effect of JAK1 inhibitors in a cell line that is relevant to the cell biology of human asthma, an IL-13-stimulated STAT6 phosphorylation assay in the human lung bronchial epithelial BEAS-2B cell line was developed.
BEAS-2B cells (ATCC® CRL-9609™) were grown in Bronchial Epithelial Growth Medium (BEGM) (Lonza Catalog No. CC-3170; Walkersville, Md.; or PromoCell Catalog No. C-21060; Heidelberg, Germany). Test compound stock solutions (0.5 mM in DMSO) were serially diluted 1:2 in DMSO to generate a 10-point concentration curve (at 500×test concentration), which was further diluted by a 50-fold dilution step in BEGM to generate a 10× concentration curve (in 2% DMSO). Cells were plated at 100,000 cells/well in 200 μL of BEGM in 96-well plates and incubated for 48 hours at 37° C. in a humidified incubator. Medium was aspirated from the cells and replaced with 70 μL of fresh BEGM. Diluted test compound (10 μL; or 2% DMSO in assay medium) was added to the cells, and the plates were incubated for 1 hour at 37° C. in a humidified incubator. Twenty μL of 250 ng/mL human recombinant IL-13 (Bio Techne Catalog No. 213-ILB) was then added to the cells and incubated for 15 minutes at 37° C. Medium was aspirated from the cells and 60 μL of ice-cold 1×cell lysis buffer (Cell Signaling Technologies; Catalog No. 9803S) containing 1 mM PMSF was added to the cells. Assay plates were incubated at −80° C. for at least 1 hour. P-STAT6 was measured by coating GAR plates (MSD; Catalog No. L45RA-1) with rabbit anti-human total STAT6 antibody (Cell Signaling Technologies; Catalog No. 9362S), incubating the cell lysates in the coated plates overnight at 4° C., and then detecting with mouse anti-phospho-STAT6 (Tyr641) Clone 16E12 antibody (Millipore; Catalog No. 05-590, custom labeled by MSD with SULFO-tag) using standard MSD plate processing, washing, and detection protocols. Plates were read on the MESO SECTOR S600. Data Analysis
Data analysis was performed by subtracting negative control values from all wells and determining percent of control using the positive control values; the IC50 was determined with a four-parameter logistic fit model as shown in Equation 4.

[3] = molecular target: T1, recombinant human JAK1 kinase domain protein (Residues 854-1154) (Homo sapiens, UniProt P23458); experiment: JAK1 biochemical assay (microfluidic mobility shift, peptide phosphorylation); conditions: 25 μM ATP, 1 nM total JAK1; read-out: Enzyme JAK1 Ki
T1 construct: human JAK1 kinase domain protein (Residues 854-1154); purchased Proteros Biostructures GmbH (Martinsried, Germany); host or cells: insect cells
T1 sequence (P23458 854-1154): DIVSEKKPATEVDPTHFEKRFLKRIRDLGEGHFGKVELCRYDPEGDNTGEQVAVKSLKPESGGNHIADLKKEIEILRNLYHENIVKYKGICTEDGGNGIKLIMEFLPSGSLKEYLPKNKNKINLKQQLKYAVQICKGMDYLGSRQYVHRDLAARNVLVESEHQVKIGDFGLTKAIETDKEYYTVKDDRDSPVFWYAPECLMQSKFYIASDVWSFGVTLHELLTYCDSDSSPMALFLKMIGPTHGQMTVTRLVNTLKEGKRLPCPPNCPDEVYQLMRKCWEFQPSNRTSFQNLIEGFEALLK
Excerpt: JAK1 and JAK2 Biochemical Assays

Recombinant human JAK2 kinase domain protein (Residues 812-1132), sequence (O60674 812-1132): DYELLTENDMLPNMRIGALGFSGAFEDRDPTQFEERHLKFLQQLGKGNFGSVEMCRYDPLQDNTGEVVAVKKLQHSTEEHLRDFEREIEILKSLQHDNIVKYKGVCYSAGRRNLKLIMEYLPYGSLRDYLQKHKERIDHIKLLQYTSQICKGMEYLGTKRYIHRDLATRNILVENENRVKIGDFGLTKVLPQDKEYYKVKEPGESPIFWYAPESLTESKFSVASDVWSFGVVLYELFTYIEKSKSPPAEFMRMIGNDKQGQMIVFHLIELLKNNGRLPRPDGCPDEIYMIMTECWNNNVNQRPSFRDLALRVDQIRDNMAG

SMILES | Ki [1] | Ki [3] | IC50 ([2]; Homo sapiens, BEAS-2B) | IC50 [2]
CN1CC(n2cc(NC(=O)c3cnn4cccnc34)c(-c3cc(S(=O)(=O)C4CC4)ccc3OC(F)F)n2)C1 [Example 52, N-[3-[5-cyclopropylsulfonyl-2-(difluoromethoxy)phenyl]-1-(1-methylazetidin-3-yl)pyrazol-4-yl]pyrazolo[1,5-a]pyrimidine-3-carboxamide] | 1 nM | 2.2 nM | 96 nM | 
CS(=O)(=O)c1ccc(OC(F)F)c(-c2nn(C3CCOC3=O)cc2NC(=O)c2cnn3cccnc23)c1 (single isomer, unassigned) [Example 32, N-[3-[2-(difluoromethoxy)-5-methylsulfonyl-phenyl]-1-(2-oxotetrahydrofuran-3-yl)pyrazol-4-yl]pyrazolo[1,5-a]pyrimidine-3-carboxamide] | 0.62 nM | 1.1 nM | 120 nM | 
Cn1cc(NC(=O)c2cnn3cccnc23)c(-c2cc(S(=O)(=O)C3CNC3)ccc2OC(F)F)n1 [Example 4, N-[3-[5-(azetidin-3-ylsulfonyl)-2-(difluoromethoxy)phenyl]-1-methyl-pyrazol-4-yl]pyrazolo[1,5-a]pyrimidine-3-carboxamide] | 0.6 nM | 1.4 nM | 180 nM | 
CN1CC(S(=O)(=O)c2ccc(OC(F)F)c(-c3nn(C)cc3NC(=O)c3cnn4cccnc34)c2)C1 [Example 3, N-[3-[2-(difluoromethoxy)-5-(1-methylazetidin-3-yl)sulfonyl-phenyl]-1-methyl-pyrazol-4-yl]pyrazolo[1,5-a]pyrimidine-3-carboxamide] | 0.66 nM | 2 nM | 58 nM | 

These reach a lower Ki [1]. Values come first.

Ki [1] | Ki [3] | SMILES | IC50 ([2]; Homo sapiens, BEAS-2B) | IC50 [2]
0.46 nM | 1.4 nM | CC(O)C(C)S(=O)(=O)c1ccc(OC(F)F)c(-c2nn(C)cc2NC(=O)c2cnn3cccnc23)c1 (single isomer, unassigned) [Example 71, N-[3-[2-(difluoromethoxy)-5-(2-hydroxy-1-methyl-propyl)sulfonyl-phenyl]-1-methyl-pyrazol-4-yl]pyrazolo[1,5-a]pyrimidine-3-carboxamide] |  | 110 nM
0.4 nM | 0.43 nM | Cn1cc(NC(=O)c2cnn3cccnc23)c(-c2cc(S(=O)(=O)c3cccc(CCN)c3)ccc2OC(F)F)n1 [Example 18, N-[3-[5-[3-(2-aminoethyl)phenyl]sulfonyl-2-(difluoromethoxy)phenyl]-1-methyl-pyrazol-4-yl]pyrazolo[1,5-a]pyrimidine-3-carboxamide] | 290 nM | 
0.33 nM | 0.31 nM | Cn1cc(NC(=O)c2cnn3cccnc23)c(-c2cc(S(=O)(=O)c3cnn(CCN)c3)ccc2OC(F)F)n1 [Example 47, N-[3-[5-[1-(2-aminoethyl)pyrazol-4-yl]sulfonyl-2-(difluoromethoxy)phenyl]-1-methyl-pyrazol-4-yl]pyrazolo[1,5-a]pyrimidine-3-carboxamide] | 210 nM | 
0.23 nM | 0.4 nM | CS(=O)(=O)c1ccc(OC(F)F)c(-c2nn(C3CCOC3=O)cc2NC(=O)c2cnn3cccnc23)c1 (single isomer, unassigned) [Example 33, N-[3-[2-(difluoromethoxy)-5-methylsulfonyl-phenyl]-1-(2-oxotetrahydrofuran-3-yl)pyrazol-4-yl]pyrazolo[1,5-a]pyrimidine-3-carboxamide] |  | 99 nM
0.21 nM | 0.39 nM | N#CCn1cc(NC(=O)c2cnn3cccnc23)c(-c2cc(S(=O)(=O)C3COC3)ccc2OC(F)F)n1 [Example 51, N-[1-(cyanomethyl)-3-[2-(difluoromethoxy)-5-(oxetan-3-ylsulfonyl)phenyl]pyrazol-4-yl]pyrazolo[1,5-a]pyrimidine-3-carboxamide] | 100 nM | 
0.21 nM | 1.2 nM | CN1CCN(CCn2cc(S(=O)(=O)c3ccc(OC(F)F)c(-c4nn(C)cc4NC(=O)c4cnn5cccnc45)c3)cn2)CC1 [Example 54, N-[3-[2-(difluoromethoxy)-5-[1-[2-(4-methylpiperazin-1-yl)ethyl]pyrazol-4-yl]sulfonyl-phenyl]-1-methyl-pyrazol-4-yl]pyrazolo[1,5-a]pyrimidine-3-carboxamide] | 140 nM | 
